pKd: −log10 of the molar value.
Target: 2G12
Test: Binding curve and KD determination of 2G12-glycopeptide interaction (radiolabeled glycopeptide, protein G magnetic bead capture, scintillation counting)
Protocol: The resulting mRNAs were purified by denaturing PAGE or MEGAclear kit (Ambion), and 1 μM RNA was used in PURE system translation (reaction volume of translation varied). Typically, 25 μL of translated reaction was diluted with 100 μL of binding buffer (50 mM Tris-HCl, pH 7.8, 300 mM NaCl, 5 mM β-mercaptoethanol) and 25 μL of Ni-NTA agarose suspension (Qiagen), and tumbled at room temperature for 1 h. The resins were transferred to 0.22 μm spin-filter rinsing with 100 μL of bind buffer, and washed with 3×200 μL of bind buffer and 2×200 μL of wash buffer (50 mM Tris-HCl, pH 7.8, 5 mM β-mercaptoethanol). The bound peptides were eluted with 2×25 μL of 0.1% TFA. The eluted peptides were analyzed by MALDI-TOF MS, using α-Cyano-4-hydroxycinnamic acid matrix (Sigma), with or without desalting with ZipTip C18 resin (Millipore). For calibration of MALDI-TOF-MS, at least two of the following standards, bovine insulin, E. coli thioredoxin and/or horse apomyoglobin were used. To quantitate peptide yields, the radioactivities were measured by liquid scintillation counting. For the click reaction, the translated and purified peptides were mixed with 0.1% (v/v) Triton X-100, and then dialyzed against H2O containing 0.1% (v/v) Triton X-100 using Slide-A-Lyzer MINI Dialysis Devices, 3.5K MWCO (Thermo Scientific) overnight to desalt. After dialysis, the peptides were divided into two portions: one was glycosylated via the click reaction, while the other was saved as a non-glycosylated peptide control. […] The glycosylated peptide (<4 pmol) was incubated with 100 nM 2G12 in selection buffer (40 μL) at room temp. The solution was then tumbled 30 min with 0.12 mg of equilibrated Dynabeads Protein G to capture 2G12-glycopeptide complex. Beads were then washed with 3×40 μL of selection buffer and resuspended in 10 μL of selection buffer. The resuspended beads were heated at 70° C. for 30 min to denature 2G12 and elute glycopeptides, chilled on ice for 5 min, and tumbled at room temperature for 10 min. The magnetically isolated supernatant was recovered and the beads were rinsed with 10 μL of selection buffer.
Then, the solution was added to 0.12 mg of pre-equilibrated Dynabeads Protein G and tumbled at room temperature for 30 min. The supernatant was removed and the beads were washed with 3×40 μL of selection buffer. The radioactivities of the supernatant and wash solutions were measured by liquid scintillation counting as unbound fractions. […] The beads were resuspended in 40 μL of selection buffer, heated at 70° C. for 30 min to elute the bound glycopeptides, chilled on ice for 5 min, and tumbled at room temperature for 10 min. The supernatant was removed, and the beads were washed with 40 μL of selection buffer and resuspended in 40 μL of selection buffer. The radioactivities of these solutions and suspensions were measured by liquid scintillation counting separately and the values were combined as apparent bound fractions. […] All experiments were done at least in triplicate. KDs were calculated as described in the footnote of Table 4 (below).

Row | Structure (SMILES) | pKd (Table 4, ribosomally translated radiolabeled glycopeptide with His6/FLAG tag, room temperature, fit Fbound=(Fmax[2G12])/(KD+[2G12]), error = standard error of fit) | Fmax [%] (Table 6 mutational analysis, radioactive bead binding assay) | pKd (Table 6 mutational analysis, radioactive bead binding assay, ribosomally translated) | binding to 2G12 after truncation (in words) (truncated clones, Table 6)
1 | CC[C@H](C)[C@H](NC(=O)[C@H](CC(=O)O)NC(=O)[C@@H]1CCCN1C(=O)[C@H](C)NC(=O)[C@H](C)NC(=O)[C@H](CO)NC(=O)[C@@H](NC(=O)[C@@H]1CCCN1C(=O)[C@H](Cc1c[nH]cn1)NC(=O)[C@H](CCc1cn(C2CCC(OC3O[C@H](CO[C@H]4O[C@H](CO[C@H]5O[C@H](CO)[C@@H](O)[C@H](O)[C@@H]5O[C@H]5O[C@H](CO)[C@@H](O)[C@H](O)[C@@H]5O)[C@@H](O)[C@H](O[C@H]5O[C@H](CO)[C@@H](O)[C@H](O)[C@@H]5O[C@H]5O[C@H](CO)[C@@H](O)[C@H](O)[C@@H]5O)[C@@H]4O)[C@@H](O)[C@H](O[C@H]4O[C@H](CO)[C@@H](O)[C@H](O)[C@@H]4O[C@H]4O[C@H](CO)[C@@H](O)[C@H](O)[C@@H]4O[C@H]4O[C@H](CO)[C@@H](O)[C@H](O)[C@@H]4O)[C@@H]3O)CC2)nn1)NC(=O)[C@H](C)NC(=O)[C@H](Cc1c[nH]cn1)NC(=O)[C@H](Cc1ccccc1)NC(=O)[C@H](Cc1ccc(O)cc1)NC(=O)[C@H](Cc1c[nH]cn1)NC(=O)[C@H](C)NC(=O)[C@H](CO)NC(=O)[C@H](CCCNC(=N)N)NC(=O)[C@H](CO)NC(=O)[C@H](CC(C)C)NC(=O)[C@H](CCc1cn(C2CCC(OC3O[C@H](CO[C@H]4O[C@H](CO[C@H]5O[C@H](CO)[C@@H](O)[C@H](O)[C@@H]5O[C@H]5O[C@H](CO)[C@@H](O)[C@H](O)[C@@H]5O)[C@@H](O)[C@H](O[C@H]5O[C@H](CO)[C@@H](O)[C@H](O)[C@@H]5O[C@H]5O[C@H](CO)[C@@H](O)[C@H](O)[C@@H]5O)[C@@H]4O)[C@@H](O)[C@H](O[C@H]4O[C@H](CO)[C@@H](O)[C@H](O)[C@@H]4O[C@H]4O[C@H](CO)[C@@H](O)[C@H](O)[C@@H]4O[C@H]4O[C@H](CO)[C@@H](O)[C@H](O)[C@@H]4O)[C@@H]3O)CC2)nn1)NC(=O)[C@H](CC(C)C)NC(=O)[C@H](Cc1ccccc1)NC(=O)[C@H](C)NC(=O)[C@@H]1CCCN1C(=O)[C@H](CO)NC(=O)[C@@H]1CCCN1C(=O)[C@H](CS)NC(=O)[C@H](C)NC(=O)[C@@H](NC(=O)[C@H](CCC(N)=O)NC(=O)[C@H](CCc1cn(C2CCC(OC3O[C@H](CO[C@H]4O[C@H](CO[C@H]5O[C@H](CO)[C@@H](O)[C@H](O)[C@@H]5O[C@H]5O[C@H](CO)[C@@H](O)[C@H](O)[C@@H]5O)[C@@H](O)[C@H](O[C@H]5O[C@H](CO)[C@@H](O)[C@H](O)[C@@H]5O[C@H]5O[C@H](CO)[C@@H](O)[C@H](O)[C@@H]5O)[C@@H]4O)[C@@H](O)[C@H](O[C@H]4O[C@H](CO)[C@@H](O)[C@H](O)[C@@H]4O[C@H]4O[C@H](CO)[C@@H](O)[C@H](O)[C@@H]4O[C@H]4O[C@H](CO)[C@@H](O)[C@H](O)[C@@H]4O)[C@@H]3O)CC2)nn1)NC=O)[C@@H](C)O)[C@@H](C)O)C(=O)N[C@@H](CO)C(=O)NCC(=O)N[C@@H](CO)C(=O)NCC(=O)N[C@@H](CO)C(=O)N[C@@H](CC(C)C)C(=O)NCC(=O)N[C@@H](Cc1c[nH]cn1)C(=O)N[C@@H](Cc1c[nH]cn1)C(=O)N[C@@H](Cc1c[nH]cn1)C(=O)N[C@@H](Cc1c[nH]cn1)C(=O)N[C@@H](Cc1c[nH]cn1)C(=O)N[C@@H](Cc1c[nH]cn1)C(=O)N[C@@H](CCCNC(=N)N)C(=O)N[C@@H](CC(=O)O)C(=O)N[C@@H](Cc1ccc(O)cc1)C(=O)N[C@@H](CCCCN)C(=O)N[C@@H](CC(=O)O)C(=O)N[C@@H](CC(=O)O)C(=O)N[C@@H](CC(=O)O)C(=O)N[C@@H](CC(=O)O)C(=O)N[C@@H](CCCCN)C(=O)O (stereo partly shown) [Clone 6E, XQTACPSPAFLXLSRSAHYFHAXHPTSAAPDIS] | < 6.89 | – | – | –
2 | CC[C@H](C)[C@H](NC(=O)[C@H](CCCNC(=N)N)NC(=O)[C@H](Cc1c[nH]cn1)NC(=O)[C@H](Cc1ccccc1)NC(=O)[C@H](CC(C)C)NC(=O)[C@H](C)NC(=O)[C@H](CC(C)C)NC(=O)[C@H](C)NC(=O)[C@H](Cc1ccc(O)cc1)NC(=O)[C@H](CCc1cn(C2CCC(OC3O[C@H](CO[C@H]4O[C@H](CO[C@H]5O[C@H](CO)[C@@H](O)[C@H](O)[C@@H]5O[C@H]5O[C@H](CO)[C@@H](O)[C@H](O)[C@@H]5O)[C@@H](O)[C@H](O[C@H]5O[C@H](CO)[C@@H](O)[C@H](O)[C@@H]5O[C@H]5O[C@H](CO)[C@@H](O)[C@H](O)[C@@H]5O)[C@@H]4O)[C@@H](O)[C@H](O[C@H]4O[C@H](CO)[C@@H](O)[C@H](O)[C@@H]4O[C@H]4O[C@H](CO)[C@@H](O)[C@H](O)[C@@H]4O[C@H]4O[C@H](CO)[C@@H](O)[C@H](O)[C@@H]4O)[C@@H]3O)CC2)nn1)NC(=O)[C@H](CC(=O)O)NC(=O)[C@@H](NC(=O)[C@@H](NC(=O)[C@H](CCC(N)=O)NC(=O)[C@H](CCc1cn(C2CCC(OC3O[C@H](CO[C@H]4O[C@H](CO[C@H]5O[C@H](CO)[C@@H](O)[C@H](O)[C@@H]5O[C@H]5O[C@H](CO)[C@@H](O)[C@H](O)[C@@H]5O)[C@@H](O)[C@H](O[C@H]5O[C@H](CO)[C@@H](O)[C@H](O)[C@@H]5O[C@H]5O[C@H](CO)[C@@H](O)[C@H](O)[C@@H]5O)[C@@H]4O)[C@@H](O)[C@H](O[C@H]4O[C@H](CO)[C@@H](O)[C@H](O)[C@@H]4O[C@H]4O[C@H](CO)[C@@H](O)[C@H](O)[C@@H]4O[C@H]4O[C@H](CO)[C@@H](O)[C@H](O)[C@@H]4O)[C@@H]3O)CC2)nn1)NC(=O)[C@H](CCCCN)NC(=O)[C@H](CC(C)C)NC(=O)[C@H](C)NC(=O)[C@H](C)NC(=O)[C@H](CCc1cn(C2CCC(OC3O[C@H](CO[C@H]4O[C@H](CO[C@H]5O[C@H](CO)[C@@H](O)[C@H](O)[C@@H]5O[C@H]5O[C@H](CO)[C@@H](O)[C@H](O)[C@@H]5O)[C@@H](O)[C@H](O[C@H]5O[C@H](CO)[C@@H](O)[C@H](O)[C@@H]5O[C@H]5O[C@H](CO)[C@@H](O)[C@H](O)[C@@H]5O)[C@@H]4O)[C@@H](O)[C@H](O[C@H]4O[C@H](CO)[C@@H](O)[C@H](O)[C@@H]4O[C@H]4O[C@H](CO)[C@@H](O)[C@H](O)[C@@H]4O[C@H]4O[C@H](CO)[C@@H](O)[C@H](O)[C@@H]4O)[C@@H]3O)CC2)nn1)NC(=O)[C@H](CCc1cn(C2CCC(OC3O[C@H](CO[C@H]4O[C@H](CO[C@H]5O[C@H](CO)[C@@H](O)[C@H](O)[C@@H]5O[C@H]5O[C@H](CO)[C@@H](O)[C@H](O)[C@@H]5O)[C@@H](O)[C@H](O[C@H]5O[C@H](CO)[C@@H](O)[C@H](O)[C@@H]5O[C@H]5O[C@H](CO)[C@@H](O)[C@H](O)[C@@H]5O)[C@@H]4O)[C@@H](O)[C@H](O[C@H]4O[C@H](CO)[C@@H](O)[C@H](O)[C@@H]4O[C@H]4O[C@H](CO)[C@@H](O)[C@H](O)[C@@H]4O[C@H]4O[C@H](CO)[C@@H](O)[C@H](O)[C@@H]4O)[C@@H]3O)CC2)nn1)NC=O)C(C)C)[C@@H](C)O)C(=O)N[C@@H](CC(C)C)C(=O)NCC(=O)N[C@@H](CO)C(=O)NCC(=O)N[C@@H](CO)C(=O)N[C@@H](CC(C)C)C(=O)NCC(=O)N[C@@H](Cc1c[nH]cn1)C(=O)N[C@@H](Cc1c[nH]cn1)C(=O)N[C@@H](Cc1c[nH]cn1)C(=O)N[C@@H](Cc1c[nH]cn1)C(=O)N[C@@H](Cc1c[nH]cn1)C(=O)N[C@@H](Cc1c[nH]cn1)C(=O)N[C@@H](CCCNC(=N)N)C(=O)N[C@@H](CC(=O)O)C(=O)N[C@@H](Cc1ccc(O)cc1)C(=O)N[C@@H](CCCCN)C(=O)N[C@@H](CC(=O)O)C(=O)N[C@@H](CC(=O)O)C(=O)N[C@@H](CC(=O)O)C(=O)N[C@@H](CC(=O)O)C(=O)N[C@@H](CCCCN)C(=O)O (stereo partly shown) [Clone 10F2-Δ11, XXAALKXQVTDXYALALFHRIL] | – | 70% | 9.05 | tight binding

From patent US11345912B2, “Directed evolution of multivalent glycopeptides that tightly bind to target proteins” (Brandeis University, priority 2013, dated 2022)
